PMC5566973 (Frontiers in Pharmacology, 2017)
Where two headings read alike, the source gives them in different places.

How the values were obtained:
BCRP = test: Bidirectional transport in MDCK cell monolayers with selective transporter inhibitors or substrates; format: in vitro ADME, canine; details: dog; for efflux ratio at 120 min, 2 μM: read-out: ER
Method: (§1) Caco-2, MDCK and MDCK-MRP2 cells were donated by Prof. Yan Xie and Yueming Ma from Shanghai University of Traditional Chinese Medicine. The cells were grown in culture dishes (Corning® Costar, Cambridge, MA, USA) using DMEM supplemented with 10% FBS, 1% NEAA and 1% penicillin-streptomycin solution. The cells were cultured in 5% CO2 and […] with 90% relative humidity at 37°C. The medium was replaced every other day during incubation. The cells were passaged every 3–4 days between 70 and 80% confluence at a 1:5 split ratio using 0.25% trypsin-EDTA. For the transport experiments, the cells from passages between 30 and 45 were seeded at 1 × 10^5 cells/cm^2 onto permeable polycarbonate inserts (0.45 μm pore size, seeding surface of 0.6 cm^2, Millipore, MA, USA) in 24-well plastic plates. The media in the culture plates were changed every other day for the first week after seeding and were replaced daily afterward. […] The cells were used for the transport experiments 21–28 (Caco-2) or 5–7 (MDCK and MDCK-MRP2) days after seeding, and only monolayers with a TEER-value above 420 Ω cm^2 were used during the studies.
(§2) The apical (AP) and basolateral (BL) sides are typical of polarized Caco-2, MDCK and MDCK-MRP2 epithelial cells. Before the experiments, the polarized cell monolayers were washed twice with warm HBSS solution and subsequently preincubated (37°C, 30 min). Afterward, HBSS solution on both sides of the cell monolayers was removed using a mini desktop vacuum pump. […] The final DMSO concentration in the HBSS or drug mixture was below 0.5%. The monolayers were incubated at 37°C, and 100 μL samples were taken at 30, 60, 90, and 120 min from the acceptor compartment and immediately replaced with the same volume of prewarmed fresh blank HBSS. TEER measurements for assessing the membrane integrity took place before and after the experiments.
(§3) The apparent permeability coefficients (Papp) and ER were calculated as Equations (2) and (3): […]
(§4) where dQ/dt is the steady-state flux, A is the membrane surface area, and C0 is the initial drug concentration in the donor compartment. PappBA is the Papp-value measured in BL to AP direction and PappAB is the Papp-value measured in AP to BL direction. It indicated the involvement of an active transport process when the ER-value is above 1.5 (Hubatsch et al., [2007]).

MDCK cell monolayers = test: as above; format: in vitro ADME, canine; details: 2 μM
Method: as §1, §2, §3, §4

MDR1 = test: as above; format: in vitro ADME, canine; details: dog; for efflux ratio at 120 min, 2 μM: read-out: ER
Method: as §1, §2, §3, §4

MRP2 [1] = test: as above; format: in vitro ADME, canine; details: dog; for efflux ratio at 120 min, 2 μM: read-out: ER
Method: as §1, §2, §3, §4

Na+/K+-ATPase = test: as above; format: in vitro ADME, canine; details: dog, with sodium vanadate 0.05 mM (50 μM), + Sodium vanadate 0.05 mM (Na^+)
Method: as §1, §2, §3, §4

OATs = test: as above; format: in vitro ADME, canine; details: dog, with cimetidine 0.05 mM (50 μM), + Cimetidine 0.05 mM (OATs)
Method: as §1, §2, §3, §4

OCTs/OCTNs = test: as above; format: in vitro ADME, canine; details: dog, with TEA 5 mM, + TEA 5 mM (OCTs/OCTNs)
Method: as §1, §2, §3, §4

SGLT1 = test: as above; format: in vitro ADME, canine; details: dog, with phloridzin 0.5 mM, + Phloridzin 0.5 mM (SGLT1)
Method: as §1, §2, §3, §4

MRP2 [2] = test: Western blot analysis of MRP2 protein expression in Caco-2 cells; format: cell-based, human
Method: The Caco-2 cells were seeded into 6-well plates at a density of 1 × 10^5 cells/mL and cultured for 24 h. […] Protein lysate was collected by centrifugation at 12,000 rpm at 4°C for 10 min, and the total protein content was determined using BCA protein assay kit. Proteins were then mixed with a quarter volume of loading buffer and heated at 100°C for 5 min. Approximately 20 μg of the total protein content was separated by SDS-PAGE through an 8% acrylamide gel and transferred to PVDF membranes. After washing with PBST, the membrane was blocked with 5% fat-free milk in PBST for 1 h at room temperature (RT) and then incubated with anti-MRP2 (1:500) and anti-GAPDH (1:5,000) overnight at 4°C. Afterwards, the membranes were rinsed with PBST and incubated with HRP-conjugated anti-rabbit (1:5,000) secondary antibody for 2 h at RT. After complete washing with PBST, the protein bands were visualized with ECL prime kit (GE Healthcare, NA, UK).

[3] = rats, oral total alkaloid extracts from P. harmala 140 mg/kg; ref Zhang, 2013; Shi et al., 2014; cited from earlier work
[4] = parameters: method as in Zhang, 2013; Shi et al., 2014; details: dogs, oral total alkaloid extracts from P. harmala 140 mg/kg; ref Zhang, 2013; Shi et al., 2014; cited from earlier work
[5] = with Ko143 0.01 mM (10 μM), + Ko143 0.01 mM (BCRP)
[6] = with apigenin 0.025 mM (25 μM), + Apigenin 0.025 mM (BCRP)
[7] = + Sodium vanadate 0.05 mM (Na^+)
[8] = Control (no inhibitor or substrate)
[9] = with quinidine 0.1 mM (100 μM), + Quinidine 0.1 mM (MDR1)
[10] = with verapamil 0.1 mM (100 μM), + Verapamil 0.1 mM (MDR1)
[11] = with MK571 0.05 mM (50 μM), + MK571 0.05 mM (MRP2)
[12] = with probenecid 0.2 mM (200 μM), + Probenecid 0.2 mM (MRP2)

## COc1ccc2c(c1)[nH]c1c(C)nccc12 [Harmine]
BCRP; [5]
  Papp B→A at 120 min, 2 μM: 7.05 ± 0.16 ×10⁻⁶ cm/s
BCRP; [6]
  Papp B→A at 120 min, 2 μM: 6.83 ± 1.01 ×10⁻⁶ cm/s
MDCK cell monolayers; + Apigenin 0.025 mM (BCRP)
  Modulatory effect: −
  PappAB: 4.48 ± 0.24 1 × 10^−6 cm/s
MDCK cell monolayers; + Cimetidine 0.05 mM (OATs)
  Modulatory effect: −
  PappBA: 7.43 ± 0.62 1 × 10^−6 cm/s
MDCK cell monolayers; + ES 0.05 mM (OATPs)
  Modulatory effect: −
  PappAB: 4.59 ± 0.22 1 × 10^−6 cm/s
  PappBA: 7.17 ± 0.68 1 × 10^−6 cm/s
MDCK cell monolayers; + Gly-Sar 10 mM (PEPT1)
  Modulatory effect: −
  PappAB: 4.59 ± 0.12 1 × 10^−6 cm/s
  PappBA: 7.50 ± 0.34 1 × 10^−6 cm/s
MDCK cell monolayers; + Ko143 0.01 mM (BCRP)
  Modulatory effect: −
  PappAB: 4.50 ± 0.48 1 × 10^−6 cm/s
MDCK cell monolayers; + MK571 0.05 mM (MRP2)
  Modulatory effect: +
MDCK cell monolayers; + NaN3 10 mM (ATP)
  Modulatory effect: +
MDCK cell monolayers; + Phloretin 0.3 mM (MCTs)
  Modulatory effect: −
  PappAB: 4.51 ± 0.16 1 × 10^−6 cm/s
  PappBA: 7.47 ± 0.27 1 × 10^−6 cm/s
MDCK cell monolayers; + Phloridzin 0.5 mM (SGLT1)
  Modulatory effect: +
  PappAB: 3.89 ± 0.36^* 1 × 10^−6 cm/s
MDCK cell monolayers; + Probenecid 0.2 mM (MRP2)
  Modulatory effect: +
  PappBA: 7.24 ± 0.27 1 × 10^−6 cm/s
MDCK cell monolayers; + Quinidine 0.1 mM (MDR1)
  Modulatory effect: −
MDCK cell monolayers; [7]
  Modulatory effect: +
MDCK cell monolayers; + TEA 5 mM (OCTs/OCTNs)
  Modulatory effect: +
MDCK cell monolayers; + Verapamil 0.1 mM (MDR1)
  Modulatory effect: −
  PappAB: 4.59 ± 1.34 1 × 10^−6 cm/s
MDCK cell monolayers; [8]
  PappAB: 4.60 ± 0.25 1 × 10^−6 cm/s
  PappBA: 7.32 ± 0.19 1 × 10^−6 cm/s
MDR1; [9]
  Papp A→B at 120 min, 2 μM: 4.43 ± 0.32 ×10⁻⁶ cm/s
  Papp B→A at 120 min, 2 μM: 7.39 ± 0.32 ×10⁻⁶ cm/s
MDR1; [10]
  Papp B→A at 120 min, 2 μM: 7.67 ± 0.21 ×10⁻⁶ cm/s
MRP2 [1]; [11]
  Papp A→B at 120 min, 2 μM: 5.14 ± 0.1 ×10⁻⁶ cm/s
  Papp B→A at 120 min, 2 μM: 6.67 ± 0.37 ×10⁻⁶ cm/s
MRP2 [1]; [12]
  Papp A→B at 120 min, 2 μM: 5.21 ± 0.26 ×10⁻⁶ cm/s
Na+/K+-ATPase
  Papp A→B at 120 min, 2 μM: 3.87 ± 0.27 ×10⁻⁶ cm/s
  Papp B→A at 120 min, 2 μM: 5.22 ± 0.97 ×10⁻⁶ cm/s
OATs
  Papp A→B at 120 min, 2 μM: 4.74 ± 0.13 ×10⁻⁶ cm/s
OCTs/OCTNs
  Papp A→B at 120 min, 2 μM: 4.15 ± 0.1 ×10⁻⁶ cm/s
  Papp B→A at 120 min, 2 μM: 6.96 ± 0.24 ×10⁻⁶ cm/s
SGLT1
  Papp B→A at 120 min, 2 μM: 6.27 ± 0.78 ×10⁻⁶ cm/s
MRP2 [2]; 48 h, 2 and 5 μM, compared with the control group
  effect on the expression of MRP2: slightly up-regulate
[3]
  F-value (absolute bioavailability): 4.96%
[4]
  F-value (absolute bioavailability): 5.33%

## COc1ccc2c3c([nH]c2c1)C(C)=NCC3 [Harmaline]
BCRP; [5]
  efflux ratio at 120 min, 2 μM: 1.16
BCRP; [6]
  Papp B→A at 120 min, 2 μM: 23.7 ± 1.11 ×10⁻⁶ cm/s
  efflux ratio at 120 min, 2 μM: 1.16
MDCK cell monolayers; + Apigenin 0.025 mM (BCRP)
  Modulatory effect: −
  PappAB: 20.44 ± 2.19 1 × 10^−6 cm/s
MDCK cell monolayers; + Cimetidine 0.05 mM (OATs)
  Modulatory effect: −
MDCK cell monolayers; + ES 0.05 mM (OATPs)
  Modulatory effect: −
  PappBA: 20.89 ± 0.79 1 × 10^−6 cm/s
MDCK cell monolayers; + Gly-Sar 10 mM (PEPT1)
  Modulatory effect: −
MDCK cell monolayers; + Ko143 0.01 mM (BCRP)
  Modulatory effect: −
  PappAB: 20.08 ± 0.41 1 × 10^−6 cm/s
  PappBA: 23.37 ± 0.73 1 × 10^−6 cm/s
MDCK cell monolayers; + MK571 0.05 mM (MRP2)
  Modulatory effect: −
  PappAB: 19.66 ± 0.65 1 × 10^−6 cm/s
  PappBA: 22.57 ± 0.14 1 × 10^−6 cm/s
MDCK cell monolayers; + NaN3 10 mM (ATP)
  Modulatory effect: +
  PappAB: 16.22 ± 0.84^* 1 × 10^−6 cm/s
  PappBA: 22.78 ± 1.65 1 × 10^−6 cm/s
MDCK cell monolayers; + Phloretin 0.3 mM (MCTs)
  Modulatory effect: −
  PappAB: 20.34 ± 0.71 1 × 10^−6 cm/s
MDCK cell monolayers; + Phloridzin 0.5 mM (SGLT1)
  PappAB: 15.96 ± 0.96^* 1 × 10^−6 cm/s
  PappBA: 20.59 ± 1.19 1 × 10^−6 cm/s
MDCK cell monolayers; + Probenecid 0.2 mM (MRP2)
  Modulatory effect: −
  PappAB: 21.01 ± 2.16 1 × 10^−6 cm/s
  PappBA: 21.86 ± 1.21 1 × 10^−6 cm/s
MDCK cell monolayers; + Quinidine 0.1 mM (MDR1)
  Modulatory effect: −
MDCK cell monolayers; [7]
  Modulatory effect: +
MDCK cell monolayers; + TEA 5 mM (OCTs/OCTNs)
  Modulatory effect: +
MDCK cell monolayers; + Verapamil 0.1 mM (MDR1)
  Modulatory effect: −
  PappAB: 20.96 ± 1.30 1 × 10^−6 cm/s
MDCK cell monolayers; [8]
  PappAB: 20.36 ± 1.82 1 × 10^−6 cm/s
  PappBA: 21.03 ± 2.11 1 × 10^−6 cm/s
MDR1; [9]
  Papp A→B at 120 min, 2 μM: 20.1 ± 0.76 ×10⁻⁶ cm/s
  Papp B→A at 120 min, 2 μM: 22.5 ± 1.12 ×10⁻⁶ cm/s
  efflux ratio at 120 min, 2 μM: 1.12
MDR1; [10]
  Papp B→A at 120 min, 2 μM: 21.9 ± 2.64 ×10⁻⁶ cm/s
  efflux ratio at 120 min, 2 μM: 1.05
MRP2 [1]; [11]
  efflux ratio at 120 min, 2 μM: 1.15
MRP2 [1]; [12]
  efflux ratio at 120 min, 2 μM: 1.04
Na+/K+-ATPase
  Papp A→B at 120 min, 2 μM: 16.2 ± 1.45 ×10⁻⁶ cm/s
  Papp B→A at 120 min, 2 μM: 20.4 ± 0.22 ×10⁻⁶ cm/s
Na+/K+-ATPase; read-out: ER
  efflux ratio at 120 min, 2 μM: 1.26
OATs
  Papp A→B at 120 min, 2 μM: 19.2 ± 1.29 ×10⁻⁶ cm/s
  Papp B→A at 120 min, 2 μM: 19.2 ± 1.33 ×10⁻⁶ cm/s
OATs; read-out: ER
  efflux ratio at 120 min, 2 μM: 1
OCTs/OCTNs
  Papp A→B at 120 min, 2 μM: 16.5 ± 1.1 ×10⁻⁶ cm/s
  Papp B→A at 120 min, 2 μM: 22.8 ± 0.29 ×10⁻⁶ cm/s
OCTs/OCTNs; read-out: ER
  efflux ratio at 120 min, 2 μM: 1.38
SGLT1; read-out: ER
  efflux ratio at 120 min, 2 μM: 1.29
MRP2 [2]; 48 h, 1, 2, and 5 μM
  effect on the expression of MRP2: no effect
[3]
  F-value (absolute bioavailability): 63.22%
[4]
  F-value (absolute bioavailability): 24.99%
